22 molecules from PubChem BioAssay (NCI) can be followed below.

Among the test systems are LXFL 529 NSCLC; KM20L2 colon; DMS 114 small cell lung; DLD-1 colon; MDA-N; DU-145 prostate; MDA-MB-435; MCF7 breast.
What all share (assay): inhibition of tumour cell growth, NCI panel, 48 h

“And” between values parts separate entries of the source, which are not always exact repeats. Equal values may be shown once.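 Tested at 5 concentrations; 48 h exposure; 96-well plates; endpoints linearly interpolated, else capped at highest concentration. GI50: concentration for 50% inhibition of growth. At the TGI there is no net growth.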

`O=C(O/N=C1/CCCC/C1=C\c1ccccc1)c1ccccc1`: the TGI was more than 100 µM in the assay with LXFL 529 NSCLC, more than 100 µM in the assay with KM20L2 colon, 31.3 µM with DMS 114 small cell lung and more than 100 µM in the assay on DLD-1 colon.
Consider `O=C1c2ccccc2C(=O)C1(Cl)C1(S(=O)(=O)O)c2ccccc2-c2ccccc21`, for which the TGI in the assay on LXFL 529 NSCLC, in the assay with KM20L2 colon, with DMS 114 small cell lung and in the assay with DLD-1 colon was more than 100 µM throughout.
Turning to `CCCCc1c(OC)cc(O)c2c1C(=O)c1[nH]c(C(=O)O)c(O)c(=O)c1C2=O`, the TGI in the assay on MDA-N, in the assay on DU-145 prostate, with MDA-MB-435 and in the assay with MCF7 breast was more than 100 µM throughout.
Regarding `CC1=CC(/C=C(\C)CCCc2ccoc2)C2(OC(=O)C(C)=C2O)[C@H]2C1CC[C@@H]2C` (stereo partly specified), the TGI with LXFL 529 NSCLC is 58.8 µM; in the assay with DMS 114 small cell lung, 72.2 µM; in the assay with DLD-1 colon, more than 100 µM.
Turning to `CCCCN(CCCC)CC(C(=O)Nc1ccc([N+](=O)[O-])cc1[N+](=O)[O-])/C(C)=N\NC(=S)NN` (stereo unspecified), the TGI with LXFL 529 NSCLC, in the assay on KM20L2 colon, in the assay on DMS 114 small cell lung and with DLD-1 colon was more than 100 µM each time.
Regarding `COC(=O)C1=C(c2ccc3c(c2)OCO3)O[C@H](c2cc(OC)c(OC)c(OC)c2)[C@H]1COC(C)=O`, the TGI in the assay with LXFL 529 NSCLC was 36.3 µM; in the assay with KM20L2 colon, 8.72 µM; in the assay with DMS 114 small cell lung, 5.8 µM; in the assay on DLD-1 colon, more than 100 µM.
Consider `O=C(CCCn1ccnc1[N+](=O)[O-])NCCn1cncc1[N+](=O)[O-]`, for which the TGI in the assay with MDA-N, in the assay on DU-145 prostate, with MDA-MB-435 and in the assay with MCF7 breast was more than 100 µM throughout.
For the molecule `COc1ncnc(C2CC2)c1-c1ncc2cnn(Cc3ccc(-c4nc(C(F)(F)F)cn4C(C)C)cc3)c2n1`, the GI50 in the assay with DU-145 prostate is 22.1 µM; in the assay with MDA-MB-435, 19.8 µM; in the assay on MCF7 breast it was 17.3 µM. Further, the TGI in the assay with DU-145 prostate is more than 100 µM; in the assay on MDA-MB-435 it was 51.6 µM; with MCF7 breast, 57.4 µM.
As for `Oc1ccc(Cl)cc1Cc1cc(Cl)cc(Cl)c1O`, the GI50 was 4.94 µM in the assay on DU-145 prostate, 4.35 µM in the assay with MDA-MB-435 and 3.51 µM in the assay with MCF7 breast. Besides, the TGI with DU-145 prostate came to 53.7 µM; in the assay on MDA-MB-435, 83.2 µM; with MCF7 breast it was 20.3 µM.
On to `CCCCOC(=O)C1C(c2ccc(Cl)cc2)NC(c2ccc(Cl)cc2)C(C(=O)OCCCC)S1(=O)=O` (stereo unspecified), for which the TGI in the assay with LXFL 529 NSCLC, with KM20L2 colon, in the assay on DMS 114 small cell lung and with DLD-1 colon was more than 100 µM in each case.
`CNCCNc1c2c(c(NCCNC)c3c(CN(C)C)c[nH]c13)C(=O)c1ccccc1C2=O`: the figures for the GI50 with DU-145 prostate, in the assay on MDA-MB-435 and in the assay on MCF7 breast were 1.53 µM, 2.5 µM and 0.922 µM, respectively. Also, the TGI in the assay on DU-145 prostate amounted to 5.93 µM; with MDA-MB-435, 10.7 µM; in the assay with MCF7 breast it was 6.7 µM.
With `COc1ccc(NC(=O)CCc2cc(-c3ccc(O)c(OC)c3)nc(NC#N)n2)cc1`, the TGI with LXFL 529 NSCLC, with KM20L2 colon, in the assay with DMS 114 small cell lung and with DLD-1 colon was more than 100 µM in each case.
With `C/C(=C\CCc1ccoc1)CC/C=C(\C)CCCC1=CC(=O)OC1`, the values for the GI50 in the assay with DU-145 prostate, with MDA-MB-435 and in the assay with MCF7 breast were 24.8 µM, 5.76 µM and 3.47 µM, respectively. The TGI in the assay with DU-145 prostate was more than 100 µM; in the assay on MDA-MB-435 it was 34.1 µM; in the assay on MCF7 breast, 36.9 µM.
`COc1ccc2c(c1)C(C)Cc1c(Cl)ncnc1N2C` (stereo unspecified): the GI50 was 3.41 µM with DU-145 prostate, 0.355 µM in the assay with MDA-MB-435 and 0.328 µM in the assay on MCF7 breast. The TGI in the assay on DU-145 prostate is more than 74.1 µM; in the assay on MDA-MB-435 it was 1.81 µM; in the assay with MCF7 breast, more than 21.9 µM.
As for `CC(=O)O.CC(=O)O.CC(=O)O.CC(=O)O.CC(=O)O.CC(=O)O.O.[Ti].[Ti]`, the GI50 in the assay with LXFL 529 NSCLC, in the assay with KM20L2 colon and in the assay with DLD-1 colon was more than 100 µM throughout. For the same molecule, the TGI in the assay with LXFL 529 NSCLC, in the assay with KM20L2 colon and in the assay with DLD-1 colon was more than 100 µM throughout.
On to `O=[n+]1c2c(n([O-])c3ccccc31)CCCCCCCCCC2`, for which the TGI in the assay with LXFL 529 NSCLC, in the assay with KM20L2 colon and with DLD-1 colon was more than 100 µM in each case.
Turning to `Cn1c(=O)c2c(nc(Nc3cc(=O)[nH]c(=O)[nH]3)n2Cc2ccccc2)n(C)c1=O`, the GI50 with DU-145 prostate, with MDA-MB-435 and in the assay with MCF7 breast was more than 100 µM throughout. Besides, the TGI in the assay on DU-145 prostate, with MDA-MB-435 and in the assay on MCF7 breast was more than 100 µM in each case.
On to `C=C(C=O)C1CCC2(C(=O)O)CCC3(C)C(CCC4C5(C)CCC(O)C(C)(C)C5CCC43C)C12` (stereo unspecified), for which the GI50 in the assay on DU-145 prostate was 1.6 µM; in the assay on MDA-MB-435, 2.74 µM; in the assay on MCF7 breast, 2.76 µM. Besides, the TGI with DU-145 prostate came to 3.55 µM; with MDA-MB-435, 24.3 µM; in the assay on MCF7 breast it was 14.3 µM.
As to `COc1ccc(OC)c(NC(=O)C(=O)NNC(=O)c2sc(NNC(C)=O)nc2C)c1`, the TGI in the assay with LXFL 529 NSCLC was 81.6 µM; in the assay on KM20L2 colon, more than 100 µM.
Regarding `CC[C@]12C=CCN3CC[C@@]4(c5ccc(OC)cc5N(C)[C@H]4[C@@](O)(C(=O)OC)[C@@H]1OC(=O)CCC[P+](c1ccccc1)(c1ccccc1)c1ccccc1)[C@@H]32`, the GI50 in the assay with DU-145 prostate is 1.09 µM and 0.768 µM; in the assay on MDA-MB-435 it was 0.239 µM and 0.348 µM; in the assay with MCF7 breast it was 0.254 µM and 0.354 µM. Besides, the TGI in the assay with DU-145 prostate is 6.47 µM and 11.8 µM; in the assay with MDA-MB-435, 0.879 µM and 1.23 µM; in the assay with MCF7 breast, 5.21 µM and 1.79 µM.
In the case of `C=C(C)[C@@]12OC3(/C=C/C=C/CCCCC)O[C@@H]1[C@@H]1[C@@H]4O[C@]4(CO)[C@@H](O)[C@]4(O)C(=O)C(C)=C[C@H]4[C@@]1(O3)[C@H](C)[C@H]2OC(=O)c1ccccc1`, the GI50 was 0.105 µM in the assay on DU-145 prostate, less than 0.01 µM in the assay on MDA-MB-435 and 1.55 µM with MCF7 breast. Besides, the TGI with DU-145 prostate amounted to 2.11 µM; with MDA-MB-435, 4.56 µM; with MCF7 breast, 3.31 µM.
On to `CC/C(=C(/c1ccc(OCCN(C)C)cc1)c1ccc(OC(=O)CCCCC(=O)c2c(C)[nH]c(/C=C3\N=C(c4ccc[nH]4)C=C3OC)c2C)cc1)c1ccccc1`, for which the GI50 in the assay with DU-145 prostate was 7.73 µM; in the assay on MDA-MB-435, 7 µM; with MCF7 breast, 0.0544 µM. The TGI in the assay with DU-145 prostate turned out to be 21.1 µM; with MDA-MB-435, 46.1 µM; with MCF7 breast, 1.2 µM.
